Calls of active or inactive are those of the source. The calls are words filed in the database; no cut-off is given here.
What was measured:
U373 MG [1] = assay: Induction of SOD activity in human U373MG cells assessed per mg protein preincubated at 10 uM for 24 hrs before H2O2 challenge by fluorimetric method (reference value: 14.2 +/- 3 UI/mg protein); format: functional, U-373MG ATCC
U373 MG [2] = assay: Inhibition of AAPH-induced oxidative stress in human U373MG cells assessed as peroxy radical scavenging activity at 5 uM by ORAC assay; format: functional, cell-based; conditions: U-373MG ATCC
[3] = target: T1, Nuclear factor erythroid 2-related factor 2 (Homo sapiens) (UniProt Q16236); assay: Induction of Nrf2-mediated CAT protein expression in H2O2-stimulated human U373MG cells preincubated at 5 uM for 24 hrs before H2O2 challenge by Western blot method; format: cell-based; conditions: U-373MG ATCC
T1 sequence (whole entry): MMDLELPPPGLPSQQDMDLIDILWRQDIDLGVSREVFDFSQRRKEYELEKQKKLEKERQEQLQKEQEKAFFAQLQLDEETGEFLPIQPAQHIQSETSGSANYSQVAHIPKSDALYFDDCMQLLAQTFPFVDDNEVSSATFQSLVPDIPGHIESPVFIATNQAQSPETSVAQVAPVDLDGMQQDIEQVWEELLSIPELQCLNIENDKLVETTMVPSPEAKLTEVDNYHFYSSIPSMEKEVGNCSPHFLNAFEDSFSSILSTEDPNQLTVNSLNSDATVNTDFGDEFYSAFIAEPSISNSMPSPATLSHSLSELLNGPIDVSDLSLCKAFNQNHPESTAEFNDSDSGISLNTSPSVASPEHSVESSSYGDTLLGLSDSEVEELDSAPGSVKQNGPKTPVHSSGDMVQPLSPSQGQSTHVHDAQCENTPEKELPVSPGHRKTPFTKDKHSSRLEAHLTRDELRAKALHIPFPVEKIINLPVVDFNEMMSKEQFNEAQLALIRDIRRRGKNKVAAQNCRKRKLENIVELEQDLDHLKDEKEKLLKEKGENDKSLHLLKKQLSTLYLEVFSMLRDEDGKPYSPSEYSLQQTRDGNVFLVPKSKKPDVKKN

U373 MG [4] = assay: Induction of Nrf2 nuclear protein expression in H2O2-stimulated human U373MG cells preincubated at 10 uM for 24 hrs before H2O2 challenge by Western blot method; format: functional, cell-based; conditions: U-373MG ATCC
U373 MG [5] = assay: Induction of ROS production in human U373MG cells at 5 uM after 24 hrs by DCFH-DA assay; format: functional, cell-based; conditions: U-373MG ATCC
U373 MG [6] = assay: Induction of Glutathione reductase activity in human U373MG cells assessed as […] per mg protein preincubated at 5 uM for 24 hrs before H2O2 challenge by fluorimetric method (reference value: 9.3 +/- 2.2 nmol/min/mg protein); format: functional, U-373MG ATCC
U373 MG [7] = assay: Inhibition of AAPH-induced oxidative stress in human U373MG cells assessed as peroxy radical scavenging activity at 10 uM by ORAC assay; format: functional, cell-based; conditions: U-373MG ATCC
[8] = target: T1, Nuclear factor erythroid 2-related factor 2 (Homo sapiens); assay: Induction of Nrf2-mediated SOD protein expression in H2O2-stimulated human U373MG cells preincubated at 5 uM for 24 hrs before H2O2 challenge by Western blot method; format: cell-based; conditions: U-373MG ATCC
U373 MG [9] = assay: Induction of Nrf2 nuclear protein expression in H2O2-stimulated human U373MG cells preincubated at 5 uM for 24 hrs before H2O2 challenge by Western blot method; format: functional, cell-based; conditions: U-373MG ATCC
U373 MG [10] = assay: Inhibition of H2O2-induced oxidative stress in human U373MG cells assessed as GSH/GSSG ratio at 5 uM (reference value: 1.8 +/- 0.1 ); format: functional, U-373MG ATCC
[11] = target: T1, Nuclear factor erythroid 2-related factor 2 (Homo sapiens); assay: Induction of Nrf2-mediated GPx protein expression in H2O2-stimulated human U373MG cells preincubated at 10 uM for 24 hrs before H2O2 challenge by Western blot method; format: cell-based; conditions: U-373MG ATCC
U373 MG [12] = assay: Inhibition of H2O2-induced oxidative stress in human U373MG cells assessed as GSH level per mg protein at 10 uM by fluorimetric method (reference value: 17.1 +/- 1.7 nmol/mg protein); format: functional, U-373MG ATCC
U373 MG [13] = assay: Inhibition of H2O2-induced oxidative stress in human U373MG cells assessed as GSSG level per mg protein at 5 uM by fluorimetric method (reference value: 9.2 +/- 0.9 nmol/mg protein); format: functional, U-373MG ATCC
U373 MG [14] = assay: Induction of selenium-dependent GPx activity in human U373MG cells assessed as […] per mg protein preincubated at 5 uM for 24 hrs before H2O2 challenge by fluorimetric method (reference value: 14.7 +/- 2.9 nmol/min/mg protein); format: functional, U-373MG ATCC
[15] = Cytotoxicity against human U373MG cells assessed as LDH release at 1 to 10 uM after 24 hrs by LDH assay; format: cell-based; conditions: u-373mg atcc
U373 MG [16] = assay: Induction of total GPx activity in human U373MG cells assessed as […] per mg protein preincubated at 10 uM for 24 hrs before H2O2 challenge by fluorimetric method (reference value: 58.5 +/- 5.1 nmol/min/mg protein); format: functional, U-373MG ATCC
[17] = target: T1, Nuclear factor erythroid 2-related factor 2 (Homo sapiens); assay: Induction of Nrf2-mediated GPx protein expression in H2O2-stimulated human U373MG cells preincubated at 5 uM for 24 hrs before H2O2 challenge by Western blot method; format: cell-based; conditions: U-373MG ATCC
[18] = Cytotoxicity against human U373MG cells assessed as dye reduction at 1 to 10 uM after 24 hrs by MTT assay; format: cell-based, U-373MG ATCC; conditions: read-out: Activity
U373 MG [19] = assay: Induction of ROS production in human U373MG cells at 10 uM after 24 hrs by DCFH-DA assay; format: functional, cell-based; conditions: U-373MG ATCC
U373 MG [20] = assay: Inhibition of H2O2-induced lipid peroxidation in human U373MG cells assessed as reduction in MDA levels per mg protein at 10 uM by HPLC analysis (reference value: 0.95 +/- 0.03 nmol/mg protein); format: functional, U-373MG ATCC
[21] = target: T1, Nuclear factor erythroid 2-related factor 2 (Homo sapiens); assay: Induction of Nrf2-mediated CAT protein expression in H2O2-stimulated human U373MG cells preincubated at 10 uM for 24 hrs before H2O2 challenge by Western blot method; format: cell-based; conditions: U-373MG ATCC
U373 MG [22] = assay: Inhibition of H2O2-induced oxidative stress in human U373MG cells assessed as GSH/GSSG ratio at 10 uM (reference value: 1.8 +/- 0.1 ); format: functional, U-373MG ATCC
U373 MG [23] = assay: Inhibition of H2O2-induced lipid peroxidation in human U373MG cells assessed as reduction in MDA levels per mg protein at 5 uM by HPLC analysis (reference value: 0.95 +/- 0.03 nmol/mg protein); format: functional, U-373MG ATCC
U373 MG [24] = assay: Induction of total GPx activity in human U373MG cells assessed as […] per mg protein preincubated at 5 uM for 24 hrs before H2O2 challenge by fluorimetric method (reference value: 58.5 +/- 5.1 nmol/min/mg protein); format: functional, U-373MG ATCC
U373 MG [25] = assay: Induction of Glutathione reductase activity in human U373MG cells assessed as […] per mg protein preincubated at 10 uM for 24 hrs before H2O2 challenge by fluorimetric method (reference value: 9.3 +/- 2.2 nmol/min/mg protein); format: functional, U-373MG ATCC
U373 MG [26] = assay: Induction of SOD activity in human U373MG cells assessed per mg protein preincubated at 5 uM for 24 hrs before H2O2 challenge by fluorimetric method (reference value: 14.2 +/- 3 UI/mg protein); format: functional, U-373MG ATCC
U373 MG [27] = assay: Inhibition of H2O2-induced oxidative stress in human U373MG cells assessed as GSSG level per mg protein at 10 uM by fluorimetric method (reference value: 9.2 +/- 0.9 nmol/mg protein); format: functional, U-373MG ATCC

Activity [3]	Activity [8]	Activity [11]	Activity [17]	Structure (SMILES)	Activity (U373 MG [1]) [IU]	Activity (U373 MG [2])	Activity (U373 MG [4])	Activity (U373 MG [5])	Activity (U373 MG [6]) [nmol/min]	Activity (U373 MG [7])	Activity (U373 MG [9])	Ratio (U373 MG [10])	Activity (U373 MG [12]) [nmol]	Activity (U373 MG [13]) [nmol]	Activity (U373 MG [14]) [nmol/min]	Activity [15] [%]	Activity (U373 MG [16]) [nmol/min]	viability at 24 h, up to 10 µM [18] [%]	Activity (U373 MG [19])	Activity (U373 MG [20]) [nmol]	further results
Active	Active	Active	Active	CC1(C)CCC[C@H]2C1=CC[C@H]1C[C@@](C)([C@@H](O)CO)C[C@@H](O)[C@@]12C [LAGASCATRIOL]	23.9	inactive	Active	inactive	15.8	inactive	Active	3.8	30	7.1	22.8	< 10	85.2	90	inactive	0.57	Activity [21]: Active; Ratio (U373 MG [22]): 4.2; Activity (U373 MG [23]): 0.6 nmol; Activity (U373 MG [24]): 76.9 nmol/min; Activity (U373 MG [25]): 20.6 nmol/min; Activity (U373 MG [26]): 22.8 IU; Activity (U373 MG [27]): 7 nmol
inactive	inactive	inactive	inactive	CC1(C)CCC[C@]2(C)[C@@H]1C[C@H](O)[C@@]13C=C[C@@](CO)(C1)[C@H](O)C[C@@H]23 [CONCHITRIOL]	18.8	inactive	inactive	inactive	8.2	inactive	inactive	2	19.8	8.9	17.6	< 10	52.6	90	inactive	0.87	Activity [21]: inactive; Ratio (U373 MG [22]): 2.3; Activity (U373 MG [23]): 0.91 nmol; Activity (U373 MG [24]): 59.5 nmol/min; Activity (U373 MG [25]): 10.2 nmol/min; Activity (U373 MG [26]): 15 IU; Activity (U373 MG [27]): 8.6 nmol
Active	Active	Active	Active	C=CC(=C)CC[C@H]1[C@]2(C)CCC[C@](C)(CO)[C@H]2[C@H](O)C[C@]1(C)O [ANDALUSOL]	26	inactive	Active	inactive	19.1	inactive	Active	5.1	39.8	7	23.9	< 10	82.4	90	inactive	0.51	Activity [21]: Active; Ratio (U373 MG [22]): 5.7; Activity (U373 MG [23]): 0.62 nmol; Activity (U373 MG [24]): 89.1 nmol/min; Activity (U373 MG [25]): 19.7 nmol/min; Activity (U373 MG [26]): 24.7 IU; Activity (U373 MG [27]): 6.8 nmol

— ChEMBL document CHEMBL2176906, “Diterpenoids isolated from Sideritis species protect astrocytes against oxidative stress via Nrf2” (J Nat Prod, 2012)
